# Reference: patent US11576979B2, “Pyrrolobenzodiazepine prodrugs and antibody conjugates thereof” (GENENTECH, INC., priority 2016, dated 2023)
# Like-named read-outs stand apart in the source and are kept apart here.
# Columns and labels:
# HCT 116 = experiment: Standard cell panel (Table 7B); type: cell-based; settings: Homo sapiens
# Description: (§1) PBD dimer control 1 and PBD dimer control 2 were further evaluated in standard cell panels against a number of cell lines.
# BJAB = experiment: Standard cell panel (Table 7B); type: cell-based; settings: Homo sapiens
# Description: as §1
# A2058 = experiment: Standard cell panel (Table 7B); type: cell-based; settings: Homo sapiens
# Description: as §1
# HL-60 = experiment: Standard cell panel (Table 7B); type: cell-based; settings: Homo sapiens
# Description: as §1
# MES-SA/Dx5 = experiment: Standard cell panel (Table 7B); type: cell-based; settings: Homo sapiens
# Description: as §1
# BJAB/Pgp = experiment: Standard cell panel (Table 7B); type: cell-based; settings: Homo sapiens
# Description: as §1
# DLD-1 = experiment: Standard cell panel (Table 7B); type: cell-based; settings: Homo sapiens
# Description: as §1
# MES-SA = experiment: Standard cell panel (Table 7B); type: cell-based; settings: Homo sapiens
# Description: as §1
# MDA-MB-231 = experiment: Standard cell panel (Table 7B); type: cell-based; settings: Homo sapiens
# Description: as §1
# KPL-4 [1] = experiment: Standard cell panel (Table 7B); type: cell-based; settings: KPL4
# Description: as §1
# [2] = system: double strand DNA Oligos 1 and 2; experiment: DNA oligo binding, LC/MS/UV; settings: 100 uM compound, 100 uM DNA, 1 hour, 37 C
# Description: For DNA binding determination, the compounds were incubated at 100 μM with 100 μM double strand DNA Oligos 1 and 2 for 1 hour in 10 mM Bis-Tris, pH 7.1 at 37° C. The single strand DNA Oligos (5′-TATAGAATCTATA-3′ and 3′-ATATCTTAGATAT-5′) were synthesized at Genentech. The samples were analyzed by LC/MS/UV (210-450 nm) on Sciex TripleTOF 5600 on a Hypersil Gold C18 column (100×2.1, 1.9 Thermo Scientific). The column was eluted at 0.4 mL/min by a gradient of buffer A (50 mM hexafluoro-isopropanol and 15 mM diisopropylethylamine) to buffer B (50% A and 50% of 1:1 methanol:acetonitrile), 5% 0-0.5 min, 5-25% B 0.5-25 min, 25-95% B 25-40 min, and to 95% B 40-42 min. The % remaining was an average of the starting DNA oligos remaining in incubations (n=2). The products were characterized by LC/MS in a negative ESI ion mode.
# DT Diaphorase [3] = biological target: T1, DT Diaphorase (Homo sapiens, UniProt P15559); experiment: DT diaphorase activated payload release (LC-MS MRM quant); type: biochemical; settings: after 90 minutes incubation
# T1 construct: purchased Sigma D1315
# Description: In addition to the potency evaluation, the release of PBD dimer diaphorase prodrug 1 was evaluated. The release was measured to be 12% after 90 minutes incubation according to the following method. First, a master mix reaction was prepared containing 0.5 uM of the […], […] NADPH […]. Second, the reaction mix was incubated at room temperature for 5, 30, 90 min. […] Finally, data was analyzed using MultiQuant analysis software and standards were calculated using GraphPad Prism 6 linear regression fit.
# An in vitro DT diaphorase activated drug release assay was used to measure NADPH depletion. DT diaphorase activated release of Norfloxacin and Payload (PBD) was measured by the in vitro depletion of NADPH. The assay method was modified from the absorbance measurement of NADPH at A340 (Osman et. al, Chemico-Biological Interactions 147 (2004) 99-108) due to the interference of compounds. The depletion of NADPH was measured by monitoring the decrease of fluorescence intensity of NADPH at 480 nm after being excited at 340 nM. […] The fluorescence intensity (RFU) of DNAPH was recorded on M1000 plate reader (Tecan) with excitation at 340 nm and emission at 480 nm. For data analysis, data was analyzed and plotted using Prism GraphPad 6. […]
# WSU Cell line = experiment: Cell viability, DTD-activated quinone prodrugs (Example 15); type: cell-based
# Description: (§2) The toxicity of PBD dimer diaphorase prodrug 1, PBD monomer diaphorase prodrug 2, PBD dimer control 1 and PBD monomer control 1 were evaluated against KPL-4 and WSU cell lines for cell viability. The KPL-4 cell line is was a high DTD cell line characterized by NQO1 nRPKM of 839 and the WSU cell line was a low DTD cell line characterized by a NQO1 nRPKM of 1.36. The IC50 ratios are based on the prodrug IC50 value relative to the PBD dimer control.
# KPL-4 Cell line = experiment: as above; type: cell-based
# Description: as §2
# HCT-116 = experiment: CELLTITER GLO cell proliferation assay (Example 6); type: cell-based; settings: Homo sapiens
# HCC1395 = experiment: CELLTITER GLO cell proliferation assay (Example 6); type: cell-based; settings: Homo sapiens, Table 4, read-out: IC50 potency HCC1395
# Jurkat = experiment: CELLTITER GLO cell proliferation assay (Example 6); type: cell-based; settings: Homo sapiens, Table 4, read-out: IC50 potency Jurkat
# WSU-DLCL2 = experiment: CELLTITER GLO cell proliferation assay (Example 6); type: cell-based; settings: data in parenthesis = repeat evaluations
# Outline: (§3)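 Cells seeded at about 8000 (WSU-DLCL2) or 4000 (KPL-4) per well in RPMI-1640 with 10% FBS, 2 mM glutamine, 50 uM cystine and 0.015 g/L L-methionine; 10-point 1:3 dose-response in triplicate, cultured at 37° C., 5% CO2. Viability read by CellTiter-Glo luminescence, normalized to no-compound minus no-cell controls.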
# KPL-4 [4] = experiment: CELLTITER GLO cell proliferation assay (Example 6); type: cell-based; settings: data in parenthesis = repeat evaluations
# Outline: as §3
# [5] = system: MDA-MB-453 tumor cell line; experiment: in vitro tumor cell killing assay, 3 days (Example 13); type: cell-based; settings: Homo sapiens, MDA-MB-453, 72 h
# Description: The toxicity of various PBD monomer and dimer boronic acid prodrug compounds were evaluated for cell toxicity. In the in vitro tumor cell killing assay, the cells were added to each well of 96-well microtiter plates at 8,000 cells per well and were incubated overnight at 37° C. in a humidified atmosphere of 5% CO2. The cells were exposed to various concentration of the indicated prodrug, positive control and negative control compounds. Where silvestrol was evaluated, a 1:3 serial dilution was used. After incubation for 3 days, Cell titer-Glo reagent (Promega, Madison Wis.) was added to the wells at 100 μL per well followed by a 10-minute incubation at room temperature, and the luminescent signal was measured using a Packard/Perkin-Elmer TopCount.
# The toxicity of PBD monomer boronic acid prodrug 1 was evaluated against MDA-MB-453 tumor cell line for cell viability. PBD monomer control 1 was used as a positive control and PBD monomer control 2 was used as a negative control. The toxicity study was repeated wherein the PBD prodrug and controls were administered in combination with silvestrol. FIG. 15C depicts a plot of MDA-MB-453 cell kill versus drug concentration in μM three days after exposure to: (i) a PBD monomer control; (ii) a PBD monomer control having a benzyl formate moiety at the N10 PBD position; and (iii) a PBD monomer boronic acid prodrug. […]
# DT Diaphorase [6] = biological target: T1, DT Diaphorase; experiment: in vitro DT diaphorase activated drug release assay (NADPH depletion); type: biochemical; settings: in <5 min
# Description: An in vitro DT diaphorase activated drug release assay was used to measure NADPH depletion. DT diaphorase activated release of Norfloxacin and Payload (PBD) was measured by the in vitro depletion of NADPH. The assay method was modified from the absorbance measurement of NADPH at A340 (Osman et. al, Chemico-Biological Interactions 147 (2004) 99-108) due to the interference of compounds. The depletion of NADPH was measured by monitoring the decrease of fluorescence intensity of NADPH at 480 nm after being excited at […]. […] Prior to assay, dilute the stock to 1 mM as the 5× working solution; (5) DT Diaphorase specific Inhibitor: prepare 40 mM stock of Dicumarol (Sigma, Cat #M1390-5G, MW=336.29) in 0.13 N NaOH, stored at 4° C. Dilute the stock to 250 uM as the 5× working solution; (6) Compounds: dilute the Norfloxacin and PBD conjugated compounds in assay buffer to 250 uM as the 5× working solution; and (7) 384 well black plate with clear bottom. For the assay procedure: (1) The reaction mix containing 0.5 uM DT-D, 50 uM compound, […] NADPH was set up in a 384 well plate at 50 ul/well. For the control with DT Diaphorase inhibitor, Dicumarol was added in the reaction mix at final 50 uM for each compound. Reaction mix containing NADPH and compound only was also added as the baseline controls. The DT Diaphorase was added in the last step; and (2) The reaction mixes were incubated at room temperature for 5, 30, 90 min. The fluorescence intensity (RFU) of DNAPH was recorded on M1000 plate reader (Tecan) with excitation at 340 nm and emission at 480 nm. For data analysis, data was analyzed and plotted using Prism GraphPad 6. The depletion of NADPH was calculated by the formula below at reaction time point at 90 min wherein: % NADPH depletion=[…].
# T1 sequence (P15559 whole entry): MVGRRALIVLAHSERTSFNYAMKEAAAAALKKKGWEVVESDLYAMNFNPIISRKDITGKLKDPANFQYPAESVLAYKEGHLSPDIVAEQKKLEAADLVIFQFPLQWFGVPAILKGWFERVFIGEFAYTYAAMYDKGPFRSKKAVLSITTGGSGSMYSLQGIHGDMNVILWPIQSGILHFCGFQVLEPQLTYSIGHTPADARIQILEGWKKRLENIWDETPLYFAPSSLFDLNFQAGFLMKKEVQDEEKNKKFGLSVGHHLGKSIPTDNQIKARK
smiles,measurement,setting,value
C=C1C[C@H]2CNc3cc(OCCCCCOc4cc5c(cc4OC)C(=O)N4CC(=C)C[C@H]4CN5)c(OC)cc3C(=O)N2C1 [PBD dimer control 2],IC50,HCT 116,15 nM
same,IC50,BJAB,4.9 nM
same,IC50,A2058,5.3 nM
same,IC50,HL-60,2.4 nM
same,IC50,MES-SA/Dx5,> 100 nM
same,IC50,BJAB/Pgp,53.7 nM
same,IC50,DLD-1,> 100 nM
same,IC50,MES-SA,10 nM
same,IC50,MDA-MB-231,73.2 nM
same,IC50,KPL-4 [1],67.4 nM
same,% DNA oligo remaining,[2],100%
C=C1C[C@H]2C=Nc3cc(OCCCCCOc4cc5c(cc4OC)C(=O)N4CC(=C)C[C@H]4C(O)N5C(=O)OCc4cc5c(n4C)C(=O)C=C(OC)C5=O)c(OC)cc3C(=O)N2C1 (stereo partly drawn) [PBD dimer diaphorase prodrug 1],release,DT Diaphorase [3],12%
same,IC50,"WSU Cell line; WSU Cell line (low DTD), Table 10, read-out: IC50 Potency",8.56 nM
same,IC50,"KPL-4 Cell line; KPL4, KPL-4 Cell line (high DTD), Table 10, read-out: IC50 Potency",35.5 nM
same,IC50,"HCT-116; HCT-116, Table 4, read-out: IC50 potency HCT-116",21.3 nM
same,IC50,HCC1395,14.2 nM
same,IC50,Jurkat,2.05 nM
C=C1C[C@H]2C=Nc3cc(OCCCCCOc4cc5c(cc4OC)C(=O)N4CC(=C)C[C@H]4C(O)N5C(=O)OCc4ccc(NC(=O)OCc5cc6c(n5C)C(=O)C=C(OC)C6=O)cc4)c(OC)cc3C(=O)N2C1 (stereo partly drawn) [PBD dimer diaphorase prodrug 2],IC50,HCC1395,9.84 nM
same,IC50,"WSU-DLCL2; Homo sapiens, WSUDLCL2, Table 4, read-out: IC50 potency WSU-DLCL2",0.8 nM
same,IC50,Jurkat,1.25 nM
same,IC50,"KPL-4 [4]; KPL4, Table 4, read-out: IC50 potency KPL-4",10.1 nM
C=C1C[C@H]2C(O)N(C(=O)OCc3ccc(B4OC(C)(C)C(C)(C)O4)cc3)c3cc(OC)c(OC)cc3C(=O)N2C1 (stereo partly drawn) [PBD monomer boronic acid prodrug 1],EC50,[5],1850 nM
C=C1C[C@H]2C(O)N(C(=O)OCc3cc4c(n3C)C(=O)C=C(OC)C4=O)c3cc(OC)c(OC)cc3C(=O)N2C1 (stereo partly drawn) [PBD monomer diaphorase prodrug 2],IC50,WSU Cell line; read-out: IC50 Potency (nM),575 nM
same,IC50,"KPL-4 Cell line; KPL4, read-out: IC50 Potency (nM)",344 nM
same,NADPH Dep.,DT Diaphorase [6],>90% in
same,IC50,"HCT-116; HCT-116, read-out: IC50 potency HCT-116",223 nM
same,IC50,"WSU-DLCL2; Homo sapiens, WSUDLCL2, read-out: IC50 potency WSU-DLCL2, Table 4",575 nM
same,IC50,"WSU-DLCL2; read-out: IC50 potency WSU-DLCL2, Table 4",288 nM
same,IC50,"KPL-4 [4]; KPL4, read-out: IC50 potency KPL-4, Table 4",344 nM
same,IC50,"KPL-4 [4]; read-out: IC50 potency KPL-4, Table 4",355 nM
